Source: patent US20170248616A1, “IN VITRO COMPOSITIONS COMPRISING HUMAN SAMPLE AND AMYLOID TARGETING AGENT” (Amydis Diagnostics, Inc., priority 2014, published 2017)

Biological target: T1, amyloid deposits in hippocampal brain sections (Homo sapiens, UniProt P05067)
T1 construct: from tissue; host or cells: hippocampal brain sections of a mouse model for Alzheimer's disease
Assay: Fluorescence labeling of amyloid deposits in hippocampal brain sections from a mouse model for Alzheimer's disease
Details: excitation wavelength 488 nm; fluorescence micrographs
From the text: An excitation wavelength of 488 nm was used to excite the fluorophores. FIG. 13. […] An excitation wavelength of 488 nm was used to excite the fluorophores.

T1 sequence (P05067 672-713 limits assumed): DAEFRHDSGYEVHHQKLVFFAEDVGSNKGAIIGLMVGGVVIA

Compound	fluorescence labeling of amyloid deposits
COCCOCCOCCNC(=O)/C(C#N)=C/c1ccc2cc(N3CCCCC3)ccc2c1 [Compound 1, 2-cyano-N-(2-(2-(2-methoxyethoxy)ethoxy)ethyl)-3-(6-(piperidin-1-yl)naphthalen-2-yl)acrylamide]	fluorescence labeling of amyloid deposits
COCCOCCOCCNS(=O)(=O)/C(C#N)=C/c1ccc2cc(N3CCCCC3)ccc2c1 [Compound 2, 1-cyano-N-(2-(2-(2-methoxyethoxy)ethoxy)ethyl)-2-(6-(piperidin-1-yl)naphthalen-2-yl)ethenesulfonamide]	fluorescence labeling of amyloid deposits
